The text below walks through data of DBAASP.

Some test systems named below: Escherichia coli; Pseudomonas aeruginosa; Acinetobacter baumannii; Staphylococcus aureus; Escherichia coli UB1005; Bacillus subtilis 168; Escherichia coli B; Klebsiella pneumoniae.
Common to all, as to assay: ≥ marks a high value that may be exact or a test limit, other limits are often not marked, values filed in µg/mL are converted to µM
In test [1] the test system is Salmonella enterica subsp. enterica serovar Typhimurium C77-31.
The subject of test [2] is Staphylococcus epidermidis ATCC 12228.
The test system of test [3] is Staphylococcus aureus ATCC 29213.
Test [4] has as its system Staphylococcus aureus ATCC 25923.
For test [5], the system named is Escherichia coli ATCC 25922.
Test [6] deals with Salmonella enterica subsp. enterica serovar Typhimurium ATCC 14028.
The subject of test [7] is Acinetobacter baumannii ATCC 19606.
Test [8] relates to Klebsiella pneumoniae ATCC 13883.
For test [9], the system named is Enterococcus faecalis ATCC 29212.
The subject of test [10] is Pseudomonas aeruginosa ATCC 27853.
Test [11] has as its system Pseudomonas aeruginosa PAO1.
The test system of test [12] is Staphylococcus aureus USA 300.
The test system of test [13] is Pseudomonas aeruginosa ATCC 9027.
For test [14], the system named is Klebsiella pneumoniae ATCC 700603.

Converted amounts (≈) assume the structure as drawn. “And” between values parts separate entries of the source, which are not always exact repeats. Equal entries are not always repeated.

Consider `CC[C@H](C)[C@H](NC(=O)[C@H](CCCCN)NC(=O)[C@H](Cc1c[nH]c2ccccc12)NC(=O)[C@H](CCCCN)NC(=O)[C@@H](NC(=O)[C@H](CCCCN)NC(=O)[C@H](Cc1c[nH]c2ccccc12)NC(=O)[C@H](CCCCN)NC(=O)[C@@H](NC(=O)[C@H](CCCCN)NC(=O)[C@@H](N)Cc1c[nH]c2ccccc12)[C@@H](C)CC)[C@@H](C)CC)C(=O)N[C@@H](CCCCN)C(N)=O` [WKIKWKIKWKIK], for which the MIC in test [1] worked out at 2 µM (≈ 3.37 µg/mL); against Escherichia coli, 2 µM (≈ 3.37 µg/mL); in the test with Pseudomonas aeruginosa it was 4 µM (≈ 6.74 µg/mL); in [2], 2 µM (≈ 3.37 µg/mL); in test [3], 2 µM (≈ 3.37 µg/mL); in test [4] it was 2 µM (≈ 3.37 µg/mL). The minimal inhibitory concentration (MIC) against Acinetobacter baumannii came to 1.41 µM (≈ 2.38 µg/mL); against Staphylococcus aureus it was 2 µM (≈ 3.37 µg/mL); with Escherichia coli UB1005 it was 2 µM (≈ 3.37 µg/mL); in test [5], 2 µM (≈ 3.37 µg/mL).
Turning to `CC[C@H](C)[C@H](NC(=O)[C@H](CC(C)C)NC(=O)[C@@H]1CCCN1C(=O)CNC(=O)[C@H](CC(C)C)NC(=O)[C@@H](NC(=O)[C@H](CCCCN)NC(=O)[C@H](CO)NC(=O)[C@H](Cc1c[nH]c2ccccc12)NC(=O)[C@H](CCSC)NC(=O)CN)[C@@H](C)CC)C(=O)N[C@@H](CCCN=C(N)N)C(N)=O` [GMWSKILGPLIR], the MIC in the test on Pseudomonas aeruginosa was more than 100 µM; in the test on Bacillus subtilis 168, 3.6 µM (≈ 4.93 µg/mL); against Staphylococcus aureus, more than 100 µM; against Escherichia coli B, 30 µM (≈ 41.1 µg/mL).
For the compound `CC(C)C[C@H](NC(=O)[C@H](CCCN=C(N)N)NC(=O)[C@H](CCCN=C(N)N)NC(=O)[C@H](C)NC(=O)[C@H](Cc1c[nH]c2ccccc12)NC(=O)CNC(=O)[C@H](CCCN=C(N)N)NC(=O)[C@@H](N)CCCN=C(N)N)C(=O)N[C@@H](Cc1ccccc1)C(=O)N[C@@H](Cc1ccccc1)C(=O)N[C@@H](C)C(=O)N[C@@H](Cc1ccc(O)cc1)C(=O)NCC(=O)N[C@@H](CCCN=C(N)N)C(=O)N[C@@H](CCCN=C(N)N)C(N)=O` [RRGWARRLFFAYGRR], the MIC in test [6] is 1.5 µM and 2.2 µM; in test [7] it was 1.7 µM and 1.5 µM; in test [4], more than 30 µM; against Acinetobacter baumannii, 2.6 µM (≈ 5.12 µg/mL); against Klebsiella pneumoniae, 1.2 µM (≈ 2.36 µg/mL); in [8], 5.4 µM and 8.6 µM.
As for `CC[C@H](C)[C@H](NC(=O)[C@H](CC(C)C)NC(=O)[C@H](Cc1cnc[nH]1)NC(=O)CNC(=O)[C@H](CC(C)C)NC(=O)[C@@H](NC(=O)[C@H](CCCCN)NC(=O)[C@H](CO)NC(=O)[C@H](Cc1c[nH]c2ccccc12)NC(=O)[C@@H](N)CCSC)[C@@H](C)CC)C(=O)N[C@@H](CCCN=C(N)N)C(N)=O` [MWSKILGHLIR], the minimum inhibitory concentration (MIC) in the test with Pseudomonas aeruginosa was more than 100 µM; in the test with Bacillus subtilis 168, 5 µM (≈ 6.76 µg/mL); with Staphylococcus aureus it was 45 µM (≈ 60.9 µg/mL); in the test on Escherichia coli B, not below 50 µM.
Regarding `CC(C)C[C@H](NC(=O)[C@H](CCCN=C(N)N)NC(=O)[C@H](CC(N)=O)NC(=O)[C@H](C)NC(=O)[C@H](CCCN=C(N)N)NC(=O)[C@H](CC(C)C)NC(=O)[C@H](Cc1c[nH]c2ccccc12)NC(=O)[C@H](CC(C)C)NC(=O)[C@H](CCCN=C(N)N)NC(=O)[C@H](CCCN=C(N)N)NC(=O)[C@@H](N)CC(C)C)C(N)=O` [LRRLWLRANRL], the MIC in test [1] was not below 128 µM; in test [2] it was more than 128 µM; in [9], more than 128 µM; in [3], 128 µM (≈ 188 µg/mL); in [10], more than 128 µM; in test [5], 128 µM (≈ 188 µg/mL).
Regarding `CC(C)C[C@H](NC(=O)CN)C(=O)N[C@@H](CC(C)C)C(=O)N[C@@H](CO)C(=O)N[C@@H](CC(C)C)C(=O)N[C@@H](CC(C)C)C(=O)N[C@@H](CO)C(=O)N[C@@H](CC(C)C)C(=O)N[C@@H](CC(C)C)C(=O)NCC(=O)N[C@@H](CCCCN)C(=O)N[C@@H](CC(C)C)C(=O)N[C@@H](C)C(N)=O` [GLLSLLSLLGKLA], the MIC is more than 25 µM in test [11], 1.56 µM (≈ 2.02 µg/mL) in test [12], 17.7 µM (≈ 22.9 µg/mL) in test [8] and 2.16 µM (≈ 2.8 µg/mL) in test [5].
On to `CC(C)C[C@H](NC(=O)[C@@H]1CCCN1C(=O)[C@H](CCCN=C(N)N)NC(=O)[C@H](Cc1ccc(O)cc1)NC(=O)[C@@H](NC(=O)[C@@H]1CCCN1C(=O)[C@H](CCCN=C(N)N)NC(=O)[C@H](Cc1ccc(O)cc1)NC(=O)[C@@H]1CCCN1C(=O)[C@@H]1CCCN1C(=O)[C@@H]1CCCN1C(=O)[C@H](CCCN=C(N)N)NC(=O)[C@H](Cc1ccc(O)cc1)NC(=O)[C@@H](NC(=O)[C@H](CC(N)=O)NC(=O)[C@@H](N)CO)C(C)C)C(C)C)C(=O)N[C@@H](CCCN=C(N)N)C(=O)N[C@@H](CCCN=C(N)N)C(=O)N1CCC[C@H]1C(=O)NCC(=O)N[C@@H](Cc1ccc(O)cc1)C(=O)N[C@@H](CCCN=C(N)N)C(=O)N1CCC[C@H]1C(N)=O` [SNVYRPPPYRPVYRPLRRPGYRP], for which the minimum inhibitory concentration (MIC) in the test with Escherichia coli was determined as 2 µM (≈ 5.71 µg/mL); in test [7], 2 µM (≈ 5.71 µg/mL); in [3] it was 2 µM (≈ 5.71 µg/mL); against Acinetobacter baumannii, 2 µM (≈ 5.71 µg/mL); against Staphylococcus aureus, 32 µM (≈ 91.4 µg/mL); in [5], 1 µM (≈ 2.86 µg/mL).
Turning to `CC(C)C[C@H](NC(=O)[C@H](CCCN=C(N)N)NC(=O)[C@H](CC(C)C)NC(=O)[C@H](CCCN=C(N)N)NC(=O)[C@@H](NC(=O)[C@H](CCCCN)NC(=O)[C@H](CC(C)C)NC(=O)[C@H](CCCN=C(N)N)NC(=O)[C@H](CC(C)C)NC(=O)[C@H](CCCN=C(N)N)NC(=O)[C@@H](N)CC(C)C)[C@@H](C)O)C(=O)N[C@@H](CCCCN)C(N)=O` [LRLRLKTRLRLK], the minimum inhibitory concentration (MIC) was 16 µM (≈ 25 µg/mL) in test [1]; 64 µM (≈ 100 µg/mL) in test [2]; 32 µM (≈ 50.1 µg/mL) in test [3]; 32 µM (≈ 50.1 µg/mL) in test [4]; 4 µM (≈ 6.26 µg/mL) in the test with Escherichia coli UB1005; 4 µM (≈ 6.26 µg/mL) in [5].
As for `CC(C)C[C@H](NC(=O)[C@H](CC(C)C)NC(=O)[C@H](CCCN=C(N)N)NC(=O)[C@H](CCCCN)NC(=O)[C@H](CCCN=C(N)N)NC(=O)[C@H](CC(C)C)NC(=O)[C@H](CCCCN)NC(=O)[C@H](CCCN=C(N)N)NC(=O)[C@H](CC(C)C)NC(=O)[C@@H](N)CS)C(=O)N[C@@H](CS)C(=O)O` [CLRKLRKRLLC], the minimum inhibitory concentration (MIC) in [9] was more than 22.8 µM; in test [3], more than 22.8 µM; against Acinetobacter baumannii it was 22.8 µM (≈ 32 µg/mL); in test [10] it was more than 22.8 µM; in test [5] it was 17.1 µM (≈ 24 µg/mL).
`CC[C@H](C)[C@H](N)C(=O)N[C@H](C(=O)N[C@H](C(=O)N[C@@H](CCCCN)C(=O)N[C@@H](CO)C(=O)N[C@@H](CC(C)C)C(=O)NCC(=O)N[C@@H](CCCCN)C(=O)N[C@@H](Cc1ccccc1)C(=O)N[C@@H](CC(C)C)C(=O)N[C@@H](CCCCN)C(=O)N[C@@H](CC(N)=O)C(=O)N[C@H](C(=O)NCC(=O)NCC(=O)N[C@@H](Cc1ccccc1)C(=O)N[C@@H](C)C(=O)NCC(=O)O)C(C)C)[C@@H](C)CC)C(C)C` [IVIKSLGKFLKNVGGFAG]: the MIC in test [13] is more than 64 µM; in [14], more than 64 µM; in test [4], more than 64 µM; with Acinetobacter baumannii, not below 64 µM; in [5] it was more than 64 µM.
`CC(C)C[C@H](NC(=O)[C@H](CCCN=C(N)N)NC(=O)[C@H](CCCCN)NC(=O)[C@H](CCCN=C(N)N)NC(=O)[C@@H](NC(=O)[C@H](Cc1c[nH]c2ccccc12)NC(=O)[C@H](CCCCN)NC(=O)[C@H](CCCN=C(N)N)NC(=O)[C@H](CC(C)C)NC(=O)[C@H](Cc1c[nH]c2ccccc12)NC(=O)[C@@H](N)CCCN=C(N)N)[C@@H](C)O)C(=O)N[C@@H](CCCCN)C(N)=O` [RWLRKWTRKRLK]: the minimal inhibitory concentration (MIC) in test [1] was not below 64 µM; in [2], 16 µM (≈ 27.6 µg/mL); in test [3], 64 µM (≈ 110 µg/mL); in test [4], 32 µM (≈ 55.2 µg/mL); with Escherichia coli UB1005, 16 µM (≈ 27.6 µg/mL); in [5], 16 µM (≈ 27.6 µg/mL).
On to `CC[C@H](C)[C@H](NC(=O)[C@H](CCCN=C(N)N)NC(=O)[C@H](CCCN=C(N)N)NC(=O)[C@H](CC(C)C)NC(=O)[C@H](CCCN=C(N)N)NC(=O)[C@H](Cc1c[nH]c2ccccc12)NC(=O)[C@H](CCCN=C(N)N)NC(=O)[C@@H](NC(=O)[C@H](CCCN=C(N)N)NC(=O)[C@H](Cc1c[nH]c2ccccc12)NC(=O)[C@H](CCCN=C(N)N)NC(=O)[C@H](CC(C)C)NC(=O)[C@H](CCCN=C(N)N)NC(=O)[C@H](CCCN=C(N)N)NC(=O)[C@H](Cc1ccccc1)NC(=O)[C@@H](N)CCCN=C(N)N)[C@@H](C)O)C(N)=O` [RFRRLRWRTRWRLRRI], for which the MIC in test [1] is 4 µM (≈ 9.53 µg/mL); in [2], 4 µM (≈ 9.53 µg/mL); in [9], 2 µM (≈ 4.77 µg/mL); in test [3], 4 µM and 8 µM; in the test on Escherichia coli UB1005, 2 µM (≈ 4.77 µg/mL); in test [5] it was 4 µM and 8 µM.

Broadly, the MIC is the smallest concentration in the dilution series that meets the test's criterion for growth inhibition.
